The record followed here is article PMC9157788, “Design, Synthesis, and Apoptosis-Promoting Effect Evaluation of Rhopaladins’ Analog 4-Arylidene-5-Oxopyrrolidine Derivatives” (Frontiers in Chemistry, 2022).

The subject of one series is HeLa cells. The experiment in a line: MTT cell viability assay, HeLa. The class given is cell-based. The note with it: Homo sapiens, 48 h, read-out: Half inhibitory concentration (IC50), HeLa. As for the experimental part: (§1) HepG2 (human epidermoid hepatocellular carcinoma cell), 7402 (human epidermoid hepatocellular carcinoma cell), C-33A (human epidermoid cervical carcinoma cell), and HeLa (human epidermoid cervical adenocarcinoma cell) were incubated in Dulbecco’s modified Eagle’s medium (DMEM), which was purchased from Gibco (Grand Island, NY, United States). SiHa cells (human epidermoid cervical squamous cell carcinoma) were incubated in minimum essential medium (MEM, also from Gibco). CaSki (human epidermoid cervical carcinoma cell) and LO2 (human normal liver cell) were incubated in minimum essential medium (MEM, also from Gibco). All cells were maintained at 37°C in a humidified incubator with 5% carbon dioxide, and the media contained 10% fetal bovine serum (FBS, Corning, United States) and 1% penicillin–streptomycin antibiotic solution (Corning, United States). SiHa and CaSki were bought from the China Center for Type Culture Collection (CCTCC). The other five types of cancer cell lines were obtained from the Experiment Center of Medicine, Sinopharm Dongfeng Hospital, Hubei University of Medicine. The compounds were dissolved in dimethyl sulfoxide (DMSO, MP Biomedicals, United States), and cisplatin was purchased from Aladdin, Shanghai, China. The control (0 μM) group was treated with DMSO only in the same conditions, and the DMSO content in the medium was less than 0.1%.
(§2) Cell viability was measured by a 3-(4,5-dimethylthiazol-2-yl)-2,5-diphenyltetrazolium bromide (MTT, MultiSciences, China) assay. The specific experimental steps referred to our previous research ([Zhu et al., 2020]). For each cell line, cells were digested and seeded in 96-well plates at a density of 1 × 10^3 cells/well. […] Then, the formed formazan crystals were dissolved in DMSO, and the plates were estimated in a […] microplate reader (BioTek Inc., Bio-Tek MQX200) at a wavelength of 490 nm. Optical density (OD) values were obtained, and the inhibition rate and IC50 of each compound on different cells were calculated by GraphPad Prism 8.0.1 software. […]

The next series concerns SiHa cells. The experiment in a line: MTT cell viability assay, SiHa. It is filed as cell-based. Conditions: Homo sapiens, 48 h, read-out: Half inhibitory concentration (IC50), SiHa. The procedure: as §1, §2
A further series relates to C-33A cells. The experiment in a line: MTT cell viability assay, C-33A. It is filed as cell-based. The note with it: Homo sapiens, 48 h, read-out: Half inhibitory concentration (IC50), C-33A. As for the experimental part:
as §1, §2
In general terms: Formazan colour is commonly taken as a measure of viable cells.

Series [1] has as its system HepG2 cells. The experiment in a line: MTT cell viability assay, HepG2. The class given is cell-based. Conditions: Homo sapiens, 48 h, read-out: Half inhibitory concentration (IC50), HepG2. The procedure:
as §1, §2

The next series has as its system LO2 cells. The series is described as follows: MTT cell viability assay, normal liver LO2. It is filed as cell-based, human. The procedure:
as §1
Cell viability was measured by a 3-(4,5-dimethylthiazol-2-yl)-2,5-diphenyltetrazolium bromide (MTT, MultiSciences, China) assay. The specific experimental steps referred to our previous research ([Zhu et al., 2020]). For each cell line, cells were digested and seeded in 96-well plates at a density of 1 × 10^3 cells/well. After 24 h of culture, the cells were adherent and treated with varying concentrations of RPDPRH (0, 3.125, 6.25, 12.5, 25, 50, and 100 μM). Cells without treatment were used as a solvent control group (0 μM, DMSO) and those with cisplatin treatment served as a positive control. After 48 h of treatment, MTT solution was added and incubated for 4 h. Then, the formed formazan crystals were dissolved in DMSO, and the plates were estimated in a […] microplate reader (BioTek Inc., Bio-Tek MQX200) at a wavelength of 490 nm. Optical density (OD) values were obtained, and the inhibition rate and IC50 of each compound on different cells were calculated by GraphPad Prism 8.0.1 software. Cell inhibition rate (%) = 1− [(OD experimental-OD blank)/(OD control-OD blank)] × 100%.

Series [2] relates to Bcl-2. The series is described as follows: Western blot, Bcl-2 expression in 7402 cells. It is filed as cell-based, human. The note with it: 7402, 25 μM, 48 h, vs DMSO control, p < 0.01. As for the experimental part: (§3) The experimental steps of the Western blotting assay referred to Lin’s study ([Lin et al., 2020]). After treatment with different concentrations of RPDPRH (0, 6.25, 12.5, and 25 μM) for 48 h, hepatocarcinoma cells were lysed with an ice-cold RIPA protein lysis buffer (Beyotime, China). Total cell lysates were prepared with RIPA lysis buffer containing phosphatase inhibitors (Roche, China) and protease inhibitors (MedChemExpress, United States). Total cell lysates were centrifuged at 10,000 g for 10 min at 4°C to obtain the supernatant. The protein concentration was detected according to the BCA Protein Assay Kit (Beyotime, China). Then, 5× SDS loading buffer (Beyotime, China) was added to the supernatant and boiled at 100°C for 10 min. The obtained protein samples were stored at −80°C.
(§4) The protein samples (20 μg) were resolved on 4% concentration glue and 12% separating glue and prepared according to the SDS-PAGE Gel Quick Preparation Kit procedure (Beyotime, China). After electrophoresis at 80 V for 1.5–2 h, the proteins were wet-transferred onto a polyvinylidene difluoride membrane (PVDF, Millipore) at 300 mA for 1–1.5 h. […]
On the technique in general: Immunoblotting shows a protein as a band on a membrane.

The subject of series [3] is HepG2 cells. The series is described as follows: Wound healing assay, HepG2. Conditions: 48 h. It is filed as cell-based, human. As for the experimental part:
The experimental procedures were performed according to conventional methods ([Kovaříková et al., 2014]). Hepatocarcinoma cells at the logarithmic growth stage were taken and inoculated into six-well plates with 2 × 10^4 cells/well. When the cell density is about 80%, the cell wound was scratched with pipette tips. Cells were then washed with PBS and added to the cell culture broth containing 1% serum with varying concentrations of RPDPRH (0 μM, 6.25, 12.5, and 25 μM) for 48 h. Pictures were taken at 0 and 48 h under a microscope (100×). Wound healing rate (%) = [(0 h scratch distance−48 h scratch distance)/0 h scratch distance] × 100%.

For a further series, the system named is CaSki cells. The experiment in a line: MTT cell viability assay, CaSki. It is filed as cell-based. The note with it: Homo sapiens, Ca-Ski, 48 h, read-out: Half inhibitory concentration (IC50), CaSki. As for the experimental part:
as §1, §2

Series [4] relates to Bcl-2. The series is described as follows: Western blot, Bcl-2 expression in HepG2 cells. It is filed as cell-based, human. Conditions: HepG2, 25 μM, 48 h, vs DMSO control, p < 0.01. As for the experimental part:
as §3, §4

Another series concerns Bax. The series is described as follows: Western blot, Bax expression in HepG2 cells. The class given is cell-based, human. The note with it: HepG2, 25 μM, 48 h, vs DMSO control. As for the experimental part:
as §3, §4

Consider `O=C1/C(=C/c2ccc(Cl)cc2)CC(/C=C/c2ccc(Cl)cc2)(C(=O)NC2CCCCC2)N1c1ccc(F)cc1` (stereo not shown) [RPDPRH, (2E, 4E)-4-(4-chlorobenzylidene)-2-(4-chlorostyryl)-N-cyclohexyl-1-(4-fluorophenyl)-5-oxopyrrolidine-2-carboxamide], for which the IC50 with HeLa cells was 15.2 µM; in the series on SiHa cells, 17.7 µM; in the series on C-33A cells, 4.66 µM; with HepG2 cells [1] it was 12.4 µM; in the series with LO2 cells (Homo sapiens, L02, normal liver LO2 cells, 48 h, read-out: Half inhibitory concentration (IC50), LO2), greater than 100 µM; with CaSki cells, 6.42 µM. In addition, the “toxicity to the normal hepatic LO2 cells” value in the series with LO2 cells (LO2 cells, insignificant inhibition at 100 µM (Table 1 footnote b)) is recorded as “no significant toxicity”. Further, the “expression of anti-apoptotic protein Bcl-2” value in the series with Bcl-2 [2] and with Bcl-2 [4] was “decrease” in each case. The wound healing rate entry with HepG2 cells [3] (HepG2, 25 μM, vs DMSO control, p < 0.001) is recorded as “significantly decreased”; with HepG2 cells [3] (HepG2, 6.25, 12.5 and 25 μM) it was “significantly reduced”. In the series on Bax, the “ratio of Bax/Bcl-2” value is recorded as “increase obviously”. In addition, the “expression of pro-apoptotic protein Bax” value in the series with Bax (p < 0.05) was “significant increase”.
